Like-named read-outs stand apart in the source and are kept apart here.
What was measured:
[1] = Plasma free fraction (fu) and unbound Cmax (Cmax,u); type: in vitro ADME, human; conditions: unbound plasma Cmax
Procedure: The prediction of DILI severity was evaluated further using the 3D combined HCI assays using plasma-free fraction. The majority of fu values were obtained from literature, when unavailable in-house prediction was utilised. Unbound plasma Cmax concentrations (Cmax,u) were derived by multiplying total plasma Cmax with the corresponding free fraction (fu) for each compound.

hLiMTs [2] = test system: hLiMTs
HepaRG spheroids [3] = test system: HepaRG spheroids
[4] = cited from earlier work
[5] = test system: primary human hepatocytes, NIH3T3 fibroblasts, BSEP, CYP3A4; conditions: cited from earlier work
HepG2 cells [6] = conditions: cited from earlier work
HepG2 cells [7] = conditions: cited from earlier work; remark: listed apart in the source
PHH = conditions: cited from earlier work
hLiMTs [8] = conditions: cited from earlier work
PHH spheroids = conditions: cited from earlier work
[9] = read-out: Human plasma Cmax; total plasma Cmax.tot, median of 9 literature references; cited from earlier work
[10] = plasma free fraction; cited from earlier work
[11] = cited from earlier work; remark: listed apart in the source
[12] = test system: THLE-Null and THLE-3A4 cells; conditions: In vitro Assay; ref Gustafsson 2014; cited from earlier work
[13] = test system: HepG2 cells, primary human hepatocytes; conditions: In vitro Assay; ref Garside 2014; cited from earlier work
[14] = test system: isolated mouse liver mitochondria; conditions: In vitro Assay; ref Porceddu 2012; cited from earlier work
Upcyte human hepatocytes = conditions: In vitro Assay; ref Tolosa 2019; cited from earlier work
[15] = ref Chen 2011; cited from earlier work
rBsep = conditions: In vitro Assay; ref Dawson 2012; cited from earlier work
hLiMTs [16] = experiment: Combined HCI (HCS) and cellular ATP 3D assay in hLiMTs; conditions: for AC50 / minimal effective concentration: Homo sapiens
HepaRG spheroids [17] = experiment: Combined HCI (HCS) and cellular ATP 3D assay in HepaRG spheroids; conditions: HepaRG; for AC50 / minimal effective concentration: Homo sapiens
[18] = In vitro Assay, ref Persson 2013
[19] = In vitro Assay, ref Proctor 2017

## CC(=O)N1CCN(c2ccc(OCC3COC(Cn4ccnc4)(c4ccc(Cl)cc4Cl)O3)cc2)CC1 (stereo not drawn) [ketoconazole, reference compound]
[1]
  Human plasma Cmax,u: 0.565 µM
hLiMTs [2]
  DILI prediction hLiMTs (HCS-MEC): +VE (key: +VE: MEC < 25 × Cmax.tot cut-off)
HepaRG spheroids [3]
  DILI prediction HepaRG spheroids (HCS-MEC): +VE (key: +VE: MEC < 25 × Cmax.tot cut-off)
[4]; LTKB DILIrank category, ref Chen et al. 2016
  DILI severity category (Chen et al. [2016]): Most
[4]; human DILI classification, LTKB DILIrank, ref Chen et al. 2016
  DILI severity category (Chen 2016): Most
[4]; human DILI severity, ref Chen et al.
  DILI severity category: Most
[4]; ref Chen 2016
  DILI +VE (5-8), DILI -VE (-4): +VE
  DILI severity category: vMost-DILI-Concern
[5]
  Cellular toxicity (3T3 cells): -VE
  Combined Assay: +VE
  DILI in vitro assay prediction, Schadt (2015): +VE
  GSH adduct HML: -VE
  Hepatocyte cellular toxicity: +VE
  MitoTox 3T3: -VE
  TDI CYP3A4: -VE
  hBSEP inhibition: +VE
HepG2 cells [6]; In vitro Assay, ref O'Brien 2006
  Structural based (HCI): +VE
HepG2 cells [6]; Structural based (HCI), HepG2, ref O'Brien et al. 2006
  DILI in vitro assay prediction, O'Brien (2006): +VE (lowest HCI endpoint IC50 (or in the absence of dose–response < 100 µM) < 30 × total human plasma exposure levels (Cmax.tot))
HepG2 cells [7]; [18]
  Cluser analysis: +VE
  Structural based (HCI): +VE
HepG2 cells [7]; Structural based (HCI), HepG2, ref Persson et al. 2013
  DILI in vitro assay prediction, Persson (2013): +VE
PHH; 2D PHH, ATP, IC50 threshold 100 µM, ref Proctor et al. 2017
  PHH/100uM, Proctor (2017): +VE (IC50 threshold of 100 µM)
PHH; [19]
  PHH ATP <100uM: +VE (IC50 threshold of 100 µM)
hLiMTs [8]; [19]
  hLiMTs ATP <100uM: +VE (IC50 threshold of 100 µM)
hLiMTs [8]; hLiMTs, ATP, IC50 threshold 100 µM, ref Proctor et al. 2017
  hLiMTs/100uM, Proctor (2017): +VE (IC50 threshold of 100 µM)
PHH spheroids; In vitro Assay, ref Vorrink 2018
  hLiMTs ATP <20 x Cmax: +VE (IC20 < 20 × Cmax.tot cut-off)
PHH spheroids; PHH spheroids, ATP, 14 days, IC20 < 20 × Cmax.tot, ref Vorrink et al. 2018
  DILI in vitro assay prediction, Vorrink (2018): +VE (IC20 < 20 × Cmax.tot cut-off)
[9]
  Cmax: 11.3 µM
[10]
  fu: 0.050
[11]; Chen et al. 2016 or literature alignment, ref Chen et al. 2016
  Assigned DILI category: 3
[11]; […]
  In vivo DILI: +VE
[11]; ref Albrecht 2019
  In vivo DILI: +VE
[11]; ref Aleo 2019
  In vivo DILI: +VE
[11]; ref Dawson 2012
  In vivo DILI: +VE
[11]; ref Garside 2014
  In vivo DILI: +VE
[11]; ref Gustafsson 2014
  In vivo DILI: +VE
[11]; ref O'Brien 2006
  In vivo DILI: +VE
[11]; ref Persson 2013
  In vivo DILI: +VE
[11]; ref Porceddu 2012
  In vivo DILI: +VE
[11]; ref Proctor 2017
  In vivo DILI: +VE
[11]; ref Schadt 2015
  In vivo DILI: +VE
[11]; ref Tolosa 2019
  In vivo DILI: +VE
[11]; ref Vorrink 2018
  In vivo DILI: +VE
[11]; ref Williams 2019
  In vivo DILI: +VE
[12]
  THLE-Null: +VE
[13]
  Cluster 1-6 +VE Assay: +VE
[14]
  in vitro data EC2<=1x Cmax: +VE
  in vitro data EC20<=2uM: -VE
Upcyte human hepatocytes
  Upcytes multi donor assay 14day data: +VE
[15]
  DILI Score (FDA) (1-8): 8
rBsep
  Inhibition of rBsep cutoff<1& cmax u>.2: +VE
  Inhibition of rBsep cutoff<3: +VE
hLiMTs [16]; read-out: ATP endpoint AC50
  AC50: 9.09 µM
hLiMTs [16]; read-out: ATP endpoint MEC
  minimal effective concentration: 6.84 µM
hLiMTs [16]; read-out: HCS endpoint AC50
  AC50: 12.4 µM
hLiMTs [16]; read-out: HCS endpoint MEC
  minimal effective concentration: 5.88 µM
hLiMTs [16]; hLiMTs, ATP endpoint, cut-off <25x Avg Cmax
  hLiMTs <25x Avg Cmax ATP: +ve
hLiMTs [16]; hLiMTs, ATP endpoint, cut-off <100x Avg Cmaxu
  hLiMTs <100x Avg Cmaxu ATP: +ve (<100x Avg Cmaxu)
hLiMTs [16]; hLiMTs, HCS endpoints, cut-off <25x Avg Cmax
  hLiMTs <25x Avg Cmax HCS: +ve
hLiMTs [16]; hLiMTs, HCS endpoints, cut-off <100x Avg Cmaxu
  hLiMTs <100x Avg Cmaxu HCS: +ve (<100x Avg Cmaxu)
hLiMTs [16]; hLiMTs, all endpoints (ATP and HCS), cut-off <25x Avg Cmax
  hLiMTs <25x Avg Cmax All: +ve
hLiMTs [16]; hLiMTs, all endpoints, Cmax max used
  hLiMTs Cmax max All: +ve
hLiMTs [16]; hLiMTs, all endpoints, Cmax min used
  hLiMTs Cmax min All: +ve
hLiMTs [16]; hLiMTs, all endpoints, cut-off <10 uM
  hLiMTs <10 uM All: +ve (<10 uM)
hLiMTs [16]; hLiMTs, all endpoints, cut-off <100x Avg Cmaxu
  hLiMTs <100x Avg Cmaxu All: +ve (<100x Avg Cmaxu)
HepaRG spheroids [17]; ATP endpoint, cut-off <25x Avg Cmax
  HepaRG <25x Avg Cmax ATP: +ve
HepaRG spheroids [17]; ATP endpoint, cut-off <100x Avg Cmaxu
  HepaRG <100x Avg Cmaxu ATP: +ve (<100x Avg Cmaxu)
HepaRG spheroids [17]; HCS endpoints, cut-off <25x Avg Cmax
  HepaRG <25x Avg Cmax HCS: +ve
HepaRG spheroids [17]; HCS endpoints, cut-off <100x Avg Cmaxu
  HepaRG <100x Avg Cmaxu HCS: +ve (<100x Avg Cmaxu)
HepaRG spheroids [17]; all endpoints (ATP and HCS), cut-off <25x Avg Cmax
  HepaRG <25x Avg Cmax All: +ve
HepaRG spheroids [17]; all endpoints, Cmax max used
  HepaRG Cmax max All: +ve
HepaRG spheroids [17]; all endpoints, Cmax min used
  HepaRG Cmax min All: +ve
HepaRG spheroids [17]; all endpoints, cut-off <10 uM
  HepaRG <10 uM All: +ve (<10 uM)
HepaRG spheroids [17]; all endpoints, cut-off <100x Avg Cmaxu
  HepaRG <100x Avg Cmaxu All: +ve (<100x Avg Cmaxu)
HepaRG spheroids [17]; read-out: ATP endpoint AC50
  AC50: 8.42 µM
HepaRG spheroids [17]; read-out: ATP endpoint MEC
  minimal effective concentration: 7.27 µM
HepaRG spheroids [17]; read-out: HCS endpoint AC50
  AC50: 15.4 µM
HepaRG spheroids [17]; read-out: HCS endpoint MEC
  minimal effective concentration: 0.713 µM

Source: article PMC7395068, “The evolution of strategies to minimise the risk of human drug-induced liver injury (DILI) in drug discovery and development” (Archives of Toxicology, 2020)
